Here are results for one compound from patent publication US12465607B2, “ALK inhibitors for treatment of ALK-negative cancer and plasma cell-mediated diseases” (UNIVERSITETET I OSLO, priority 2019, dated 2025).

Assay [1] deals with HeLa cells expressing inducible IgM. As to the kind of experiment: Apoptosis (caspase 3 cleavage immunoblot) in HeLa cells expressing inducible IgM. The assay is classed as cell-based. The conditions noted are these: 1 μM, 24 h. The method, then: (§1) In A, HeLa cells expressing inducible IgM (heavy and light chain) were treated with mifepristone to induce IgM expression over a period of 2 weeks. Afterwards, cells were treated with 1 μM crizotinib for 24 h followed by lysis and immunoblotting for caspase 3. […] Cleavage of caspase 3 is indicative of apoptosis induction. + and − indicate cells with or without mifepristone treatment, respectively. B, Concentration-response curves for the effect of crizotinib treatment (24 h) on the viability of three different myeloma cell lines. Results are the means of three independent experiments. C, Expression levels of LTK and ALK mRNA in the indicated myeloma cell lines determined by qPCR.
HeLa cells were cultured in DMEM (GIBCO) supplemented with 10% FCS and 1% Penicillin/Streptomycin (GIBCO). For overexpression of plasmids, cells were transfected using either Fugene 6 or with TransIT-LT1 (Mirus). For knockdown experiments, cells were reverse transfected with 10 nM siRNA (final concentration) using HiPerfect (Qiagen) according to the manufacturer's instructions.
Cells were washed twice with PBS and collected in lysis buffer (50 mM Tris-HCl, pH7.4; 1 mM EDTA, 100 mM NaCl, 0.1% SDS and 1% NP-40) supplemented with proteinase and phosphatase inhibitor (Pierce Protease and Phosphatase Inhibitor Mini Tablets, EDTA-free). […]

In a further assay the test system is ARH77. The experiment in a line: Myeloma cell line viability, CCK-8, 24 hr. The assay is classed as cell-based, human. The conditions noted are these: ARH77, 24 h. The method, then: as §1
The cell lines used were the human multiple myeloma cell lines L363 (DSMZ catalogue number ACC 49), AMO-1 (DSMZ catalogue number ACC 538) and ARH-77 (ATCC CRL-1621).
Multiple myeloma cell lines were maintained in RPMI-1640 culture medium (Sigma-Aldrich, Buchs, Switzerland) supplemented with 10% heat-inactivated fetal bovine serum (FBS), 100 μg/ml streptomycin and 100 U/ml penicillin/streptomycin (Sigma-Aldrich, Buchs, Switzerland). […]
The viability of the cells was determined 24 hr post treatment using Cell Counting Kit-8 (CCK-8; MedChemExpress, NJ, USA) according to the manufacturer's instructions.

The subject of the next assay is HeLa cells. As to the kind of experiment: ER-to-Golgi trafficking in HeLa cells (ERES staining, mannosidase-II RUSH reporter). Type of assay: cell-based. The settings on record: RUSH reporter 20 min after biotin. The method, then:
In A, HeLa cells expressing flag-tagged LTK were treated with 1 μM of crizotinib or ceritinib for 30 minutes. Afterwards, cells were lysed and immunoblotted against phosphorylated LTK, which is used as a surrogate for the active form of LTK. […] B, HeLa cells were treated with 1 μM ceritinib for 30 minutes followed by fixation and staining for Sec31A to label ERES. Cells were imaged by confocal microscopy and ERES were counted using ImageJ. C, HeLa cells stably expressing mCherry-tagged mannosidase-II RUSH reporter. Cells were treated with biotin to release the reporter from the ER. After 20 min, a time point where most of the reporter has reached the Golgi, cells were fixed and immunostained for GM130 to label the Golgi apparatus. […] D, IgA secreting AMO-1 cells were treated for 3 h with the indicated doses of crizotinib and the amount of IgA in cell supernatant was determined by ELISA.

Assay [2] deals with CD138+ multiple myeloma cells. As to the kind of experiment: Viability of patient CD138+ multiple myeloma cells, CellTiterGlo 72 hr. Type of assay: cell-based. The settings on record: Homo sapiens, Multiple myeloma cell, patient-derived CD138+ multiple myeloma cells.
Procedure: Viability was measured by CellTiterGlo.
Seven multiple myeloma patient samples were included. Patients were due for treatment after second relapse (patient number 1701), third relapse (2101, 2021, 1802, 9041, 2504) or fourth relapse (2201).
Bone marrow mononuclear cells (BMMCs) were prepared from patient bone marrow aspirates by Lymphoprep density gradient centrifugation. After CD8 depletion by Dynabeads (Life Technologies) BMMCs were subsequently stimulated by expanding Th cells in the presence of Human T-Activator CD3/CD28 Dynabeads (Life Technologies) and 100 U/ml human interleukin-2 (hIL-2, Roche, Mannheim, Germany). After 48 h, BMMCs were subjected to CD138+ enrichment to isolate multiple myeloma plasma cells using MACS CD138+ microbeads (Milteny Biotec, Bergisch Gladbach, Germany).
6 crizotinib concentrations were tested, in 10-fold dilutions covering a 0.1-10,000 nM concentration range (plates dispensed by an Echo acoustic dispenser, LabCyte Inc., San Jose, CA, USA).
The plate was incubated in a humidified environment at 37° C. and 5% CO2. Cell viability was determined after 72 hr using the CellTiterGlo (Promega, Madison, WI, USA) ATP assay according to the manufacturer's instructions and using an Envision Xcite plate reader (Perkin Elmer, Shelton, CT, USA). […]
The test system of assay [3] is B-cell blasts (plasma blasts/cells). The experiment in a line: Viability of in vitro-generated B-cell blasts (plasma blasts/cells), CellTiterGlo 72 h. The settings on record: Homo sapiens, day 3 B-cell blasts from 5 donors. The assay is classed as cell-based. The method, then:
CD19^+ B-cells from 5 blood bank donors were stimulated by adherent murine L cells expressing CD40L, BAFF and April for 3 days to make B-cell blasts (plasma blasts/cells). plasma blasts/cells were tested for sensitivity to crizotinib for 72 h (CellTiterGlo).
CD19^+ B-cells from 5 blood bank donors were stimulated by adherent murine L cells expressing CD40L, BAFF and April for 3 days to make B-cell blasts (plasma blasts/cells). Washed plasma blasts/cells were detached and plated into 384 well format (10,000 cells/well) and tested against crizotinib at 6 concentrations in 10-fold dilutions covering a 10^−3-10 μM concentration range. Cell viability was determined after 72 h using the CellTiterGlo. Relative percentage cell viability was calculated by normalising luminescence units for each well to negative controls (DMSO 0.1%) and positive control wells (100 μM BzCl) and curve-fitting conducted to obtain the IC50.

Assay [4] relates to Hepatocellular carcinoma cells (HepG2). As to the kind of experiment: Apoptosis (cleaved caspase 3 immunoblot) in HepG2 cells with doxorubicin. The assay is classed as cell-based. The settings on record: 1 μM crizotinib with 1, 2 and 5 μM doxorubicin, 24 h. The method, then:
In B, Hepatocellular carcinoma cells (HepG2) were treated with DMSO (untreated) or with increasing concentrations (1, 2 and 5 μM) of doxorubicin for 24 h and apoptosis was assessed by immunoblotting for cleaved caspase 3. […] Cells were also treated with the same concentrations of doxorubicin in the presence of 1 μM crizotinib for 24 h.
Cells were washed twice with PBS and collected in lysis buffer (50 mM Tris-HCl, pH7.4; 1 mM EDTA, 100 mM NaCl, 0.1% SDS and 1% NP-40) supplemented with proteinase and phosphatase inhibitor (Pierce Protease and Phosphatase Inhibitor Mini Tablets, EDTA-free). Lysates were incubated on ice for 10 minutes followed by clearing centrifugation at 20,000×g at 4° C. for 10 min. Supernatants were transferred into fresh tubes and reducing loading buffer was added. Lysates were subjected to SDS-PAGE and transferred onto a nitrocellulose membrane using semi-dry transfer. The membrane was blocked (in ROTI buffer (Roth) or 5% milk in PBS with 0.1% tween) and probed with the appropriate primary antibodies. Subsequently membranes were incubated with horseradish peroxidase-conjugated secondary antibody. Immunoblots were developed using a chemiluminescence reagent (ECL clarity, BioRad) and imaged using ChemiDoc (BioRad).

The target in the next assay is T1, LTK (Homo sapiens, UniProt P29376).
T1 construct: expressed in transfected cells; host or cells: HeLa cells
The conditions noted are these: Centonze et al.; cited from earlier work.

T1 sequence (P29376 17-864): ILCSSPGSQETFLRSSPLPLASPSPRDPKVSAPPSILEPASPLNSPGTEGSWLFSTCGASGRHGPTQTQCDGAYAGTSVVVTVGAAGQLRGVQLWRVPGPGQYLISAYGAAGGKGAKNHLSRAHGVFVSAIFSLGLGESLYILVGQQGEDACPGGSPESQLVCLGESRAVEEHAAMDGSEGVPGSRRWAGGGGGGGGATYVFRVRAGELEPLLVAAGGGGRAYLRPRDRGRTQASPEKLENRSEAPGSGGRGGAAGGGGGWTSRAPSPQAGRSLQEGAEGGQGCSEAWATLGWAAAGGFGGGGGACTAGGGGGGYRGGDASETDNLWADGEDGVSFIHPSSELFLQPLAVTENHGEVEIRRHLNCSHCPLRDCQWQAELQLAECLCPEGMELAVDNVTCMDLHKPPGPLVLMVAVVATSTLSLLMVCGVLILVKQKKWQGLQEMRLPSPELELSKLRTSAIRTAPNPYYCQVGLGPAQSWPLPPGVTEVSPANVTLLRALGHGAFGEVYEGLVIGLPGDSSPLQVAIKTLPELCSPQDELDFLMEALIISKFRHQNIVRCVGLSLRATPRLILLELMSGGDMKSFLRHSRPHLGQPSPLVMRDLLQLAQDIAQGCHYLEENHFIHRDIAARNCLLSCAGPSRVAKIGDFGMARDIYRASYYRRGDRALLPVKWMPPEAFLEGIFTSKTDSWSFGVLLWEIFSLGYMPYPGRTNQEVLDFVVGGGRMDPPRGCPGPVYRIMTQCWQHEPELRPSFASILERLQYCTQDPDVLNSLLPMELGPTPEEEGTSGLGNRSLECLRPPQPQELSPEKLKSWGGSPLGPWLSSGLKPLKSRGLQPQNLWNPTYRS

As to `C[C@@H](Oc1cc(-c2cnn(C3CCNCC3)c2)cnc1N)c1c(Cl)ccc(F)c1Cl` [crizotinib, 3-[(1R)-1-(2,6-dichloro-3-fluorophenyl)ethoxy]-5-(1-piperidin-4-ylpyrazol-4-yl)pyridin-2-amine], in assay [1] (HeLa cells with chronic increase of secretory burden (IgM 2 weeks)), the “apoptosis (caspase 3 cleavage)” value is given as “marked increase in apoptosis”. Further, the “apoptotic response (caspase 3 cleavage)” value in assay [1] (non-secretory HeLa cells) is on record as “did not show any apoptotic response”. In addition, the cell viability result in the assay on ARH77 is “clear reductions in cell viability”. In the assay on HeLa cells, the ER-to-Golgi trafficking entry is listed as “less of the reporter in the Golgi region”. Besides, the IC50 in assay [2] was in the range of 800 to 5000 nM; in assay [3] it was 1000 to 1500 nM. For the same compound, in assay [4], the “sensitisation to apoptosis (cleaved caspase 3)” value is on record as “sensitised the HepG HCC cells to apoptosis”. At LTK, the “inhibition of LTK (previously shown)” value is reported as “previously been shown to inhibit LTK”.
